Activity calls are given as the source filed them. No cut-off for these calls is given here.
How the values were obtained:
A549 [1] = assay: Inhibition of DMBA-induced CYP1B1 expression level in human A549 cells at 5 uM incubated for 24 hrs; format: functional, cell-based
NCI-H460 [2] = assay: Upregulation of DMBA-induced CYP1B1 expression level in human NCI-H460 cells incubated for 24 hrs; format: functional, cell-based; settings: dose 1-10 µM
A549 [3] = assay: Downregulation of DMBA-induced CYP1B1 expression level in human A549 cells at 5 uM incubated for 24 hrs; format: functional, cell-based
A549 [4] = assay: Inhibition of DMBA-induced AKT overexpression in human taxol resistance A549 cells incubated for 24 hrs; format: functional, cell-based; settings: dose 5.0 µM
A549 [5] = assay: Inhibition of DMBA-induced ERK1/2 overexpression in human taxol resistance A549 cells at 5 uM incubated for 24 hrs; format: functional, cell-based
A549 [6] = assay: Inhibition of DMBA-induced CYP1B1 overexpression in human A549 cells assessed as increase in FAK level incubated for 24 hrs by densitometry analysis; format: functional, cell-based; settings: dose 5.0 µM
A549 [7] = assay: Inhibition of DMBA-induced CYP1B1 overexpression in human A549 cells assessed as increase in SRC level at 5 uM incubated for 24 hrs by densitometry analysis; format: functional, cell-based
A549 [8] = assay: Inhibition of DMBA-induced CYP1B1 overexpression in human A549 cells assessed as supression of FAK pathway at 5 uM incubated for 24 hrs by densitometry analysis; format: functional, cell-based
NCI-H460 [9] = assay: Inhibition of cell invasion in DMBA-induced human NCI-H460 cells at 5 uM by optical microscopic analysis; format: functional, cell-based
A549 [10] = assay: Inhibition of DMBA-induced CYP1B1 overexpression in human A549 cells assessed as increase in Vimentin level incubated for 24 hrs by densitometry analysis; format: functional, cell-based; settings: dose 5.0 µM
A549 [11] = assay: Inhibition of DMBA-induced CYP1B1 overexpression in human A549 cells assessed as decrease in E-cadherin level incubated for 24 hrs by densitometry analysis; format: functional, cell-based; settings: dose 5.0 µM
NCI-H460 [12] = assay: Inhibition of DMBA-induced CYP1B1 overexpression in human NCI-H460 cells assessed as effect on E-cadherin level at 5 uM incubated for 24 hrs by densitometry analysis; format: functional, cell-based
A549 [13] = assay: Inhibition of DMBA-induced CYP1B1 overexpression in human A549 cells assessed as effect on E-cadherin level at 5 uM incubated for 24 hrs by densitometry analysis; format: functional, cell-based
NCI-H460 [14] = assay: Inhibition of DMBA-induced CYP1B1 overexpression in human NCI-H460 cells assessed as effect on MMP-9 level at 5 uM incubated for 24 hrs by densitometry analysis; format: functional, cell-based
NCI-H460 [15] = assay: Inhibition of DMBA-induced CYP1B1 overexpression in human NCI-H460 cells assessed as decrease in Vimentin level at 5 uM incubated for 24 hrs by densitometry analysis; format: functional, cell-based
CYP1B1 = target: T1, CYP1B1 (Homo sapiens, UniProt Q16678); assay: Inhibition of recombinant human CYP1B1 assessed as inhibition ratio at 100 nM using 7-ethyl-0-resorufin as substrate incubated for 30 mins in presence of NADPH by EROD assay relative to control; settings: recombinant enzyme
T1 sequence (Q16678 whole entry): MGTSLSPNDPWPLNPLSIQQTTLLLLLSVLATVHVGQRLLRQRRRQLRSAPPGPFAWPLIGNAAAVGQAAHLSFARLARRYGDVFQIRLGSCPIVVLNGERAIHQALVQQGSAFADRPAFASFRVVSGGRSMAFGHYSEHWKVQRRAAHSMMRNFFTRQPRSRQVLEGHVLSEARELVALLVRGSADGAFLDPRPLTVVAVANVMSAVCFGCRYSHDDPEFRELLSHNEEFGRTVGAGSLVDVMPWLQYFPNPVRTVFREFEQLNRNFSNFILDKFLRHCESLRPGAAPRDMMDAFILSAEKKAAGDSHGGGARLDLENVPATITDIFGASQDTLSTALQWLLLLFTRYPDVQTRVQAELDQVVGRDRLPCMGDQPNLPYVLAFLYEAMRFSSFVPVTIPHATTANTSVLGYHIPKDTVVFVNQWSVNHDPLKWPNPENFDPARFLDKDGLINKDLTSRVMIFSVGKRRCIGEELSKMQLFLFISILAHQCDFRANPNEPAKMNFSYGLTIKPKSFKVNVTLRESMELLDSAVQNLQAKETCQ

A549 [16] = assay: Inhibition of DMBA-induced cell migration in human A549 cells incubated for 48 hrs by inverted microscopic analysis; format: functional, cell-based; settings: dose 5.0 µM
A549/TR [17] = assay: Reversal of taxol resistance human A549/Taxol cells assessed as increase in sensitivity incubated for 72 hrs by MTT assay; format: functional, cell-based
A549/Taxol [18] = assay: Inhibition of AKT pathway in human A549/Taxol cells assessed as decrease in phosphorylated AKT level at 5 uM incubated for 24 hrs; format: cell-based
[19] = target: Proto-oncogene tyrosine-protein kinase Src (Homo sapiens) (UniProt P12931); assay: Inhibition of SRC pathway in human A549/Taxol cells assessed as decrease in phosphorylated FAK level at 5 uM incubated for 24 hrs; format: cell-based
A549/TR [20] = assay: Reversal of taxol resistance human A549/Taxol cells assessed as increase in sensitivity at 5 uM incubated for 72 hrs by MTT assay; format: functional, cell-based
A549/TR [21] = assay: Synergistic antiproliferative activity against human A549/Taxol cells assessed as increase in taxol by measuring combination index at 3.75 uM incubated for 72 hrs in presence of 0.25 uM taxol by MTT assay; format: functional
A549/TR [22] = assay: Synergistic antiproliferative activity against human A549/Taxol cells assessed as increase in taxol by measuring combination index at 15 uM incubated for 72 hrs in presence of 0.25 uM taxol by MTT assay; format: functional
A549/TR [23] = assay: Synergistic antiproliferative activity against human A549/Taxol cells assessed as increase in taxol by measuring combination index at 15 uM incubated for 72 hrs in presence of 0.50 uM taxol by MTT assay; format: functional
A549/TR [24] = assay: Reversal of taxol resistance in human A549/Taxol cells assessed as suppression of P-gp expression level at 2.5 to 10 uM incubated for 20 mins by multimode plate reader analysis; format: functional, cell-based; settings: dose 2.5-10 µM
A549/Taxol [25] = assay: Inhibition of AKT pathway in human A549/Taxol cells assessed as decrease in phosphorylated AKT level at 2.5 to 5 uM incubated for 24 hrs; format: cell-based; settings: dose 2.5-5 µM
A549/TR [26] = assay: Upregulation of E-cadherin expression level in human A549/Taxol cells at 2.5 to 10 uM incubated for 24 hrs by densitometry analysis; format: functional, cell-based; settings: dose 2.5-10 µM

Proto-oncogene tyrosine-protein kinase Src (Homo sapiens), sequence (P12931 2-536 limits assumed): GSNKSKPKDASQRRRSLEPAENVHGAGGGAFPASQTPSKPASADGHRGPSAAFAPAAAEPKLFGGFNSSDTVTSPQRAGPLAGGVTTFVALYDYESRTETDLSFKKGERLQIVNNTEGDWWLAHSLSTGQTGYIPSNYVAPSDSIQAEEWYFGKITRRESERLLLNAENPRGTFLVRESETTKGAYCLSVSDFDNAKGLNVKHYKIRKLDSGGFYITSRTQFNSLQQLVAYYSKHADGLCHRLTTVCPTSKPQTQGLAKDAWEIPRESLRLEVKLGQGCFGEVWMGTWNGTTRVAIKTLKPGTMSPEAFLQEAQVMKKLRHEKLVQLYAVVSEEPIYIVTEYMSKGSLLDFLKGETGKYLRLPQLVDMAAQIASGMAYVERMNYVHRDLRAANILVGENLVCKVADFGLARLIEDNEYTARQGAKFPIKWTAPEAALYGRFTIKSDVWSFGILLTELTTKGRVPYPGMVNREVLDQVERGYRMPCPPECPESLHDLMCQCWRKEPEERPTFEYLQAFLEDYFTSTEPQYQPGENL

COc1cc(/C=C/c2ccc(OC)cc2OC)cc(OC)c1
inhibition (A549 [1]): Active | Activity (NCI-H460 [2]): Dose-Dependent Effect | Activity (A549 [3]): inactive | inhibition (A549 [4]): Dose-Dependent Effect | inhibition (A549 [5]): Active | inhibition (A549 [6]): Dose-Dependent Effect | inhibition (A549 [7]): inactive | inhibition (A549 [8]): Active | inhibition (NCI-H460 [9]): Active | inhibition (A549 [10]): Dose-Dependent Effect | inhibition (A549 [11]): Dose-Dependent Effect | inhibition (NCI-H460 [12]): inactive | inhibition (A549 [13]): inactive | inhibition (NCI-H460 [14]): inactive | inhibition (NCI-H460 [15]): inactive | inhibition at 0.5 h, 0.1 µM (CYP1B1): 88.9% | inhibition (A549 [16]): Dose-Dependent Effect | Activity (A549/TR [17]): Active | inhibition (A549/Taxol [18]): Active | inhibition [19]: Active

COc1cc(Nc2nc(-c3nc(-c4ccccc4F)cs3)cs2)cc(OC)c1
Activity (A549/TR [17]): Active | Activity (A549/TR [20]): Active | CI (A549/TR [21]): 0.55 | CI (A549/TR [22]): 0.3 | CI (A549/TR [23]): 0.4 | Activity (A549/TR [24]): Active | inhibition (A549/Taxol [25]): Active | Activity (A549/TR [26]): Active
